Results as given in patent publication US20050085408A1, “Drugs ameliorating hypo-hdl cholesterolemia” (priority 2001, published 2005).
Where a SMILES comes first, the peptide text is derived from it. [ ]: non-standard residue; d: D form. Nle = CCCC[C@H](N)C(=O)O

Columns and labels:
ABCA1 = test: Increase of the expression of ABCA1 in THP-1-derived macrophages (immunoblotting); type: cell-based, human; conditions: for intracellular expression of ABCA1 compared with control cells: THP-1 macrophages
Procedure: THP-1 cells (human leukemia cell, American Type Culture Collection) were cultured for 72 hours in a 10% FBS-RPMI1640 medium (Iwaki Glass Co., Ltd.), together with PMA (phorbol myristate acetate, Wako Pure Chemical Industries Ltd.) to obtain differentiated macrophages. The medium was replaced with 0.2% BSA-RPMI 1640 (Iwaki Glass Co., Ltd.) to which ALLN (50 μM, Sigma) was added, and examined for the time-course of intracellular ABCA1 expression according to the method illustrated herein below.
ALLN-treated cells and control cells cultivated in ALLN-free media were hypotonically disrupted in 5 mM Tris-HCl (pH8.5), and then centrifuged (650 g, for 5 minutes) to precipitate nuclear fractions. The supernatant was centrifuged at 105,000 g for 30 minutes to collect a total membrane fraction. The total membrane was dissolved in an aqueous solution containing 0.9M urea, 0.2% triton X-100 (Wako Pure Chemical Industries Ltd.), and 0.1% dithiothreitol (Wako Pure Chemical Industries Ltd.), followed by addition of 10% lithium dodecyl sulfate solution (Wako Pure Chemical Industries Ltd.) at a volume ratio of 1/4. The resultant was subjected to electrophoretic separation using 10% SDS-7% polyacrylamide gel (Wako Pure Chemical Industries Ltd.). The separated protein was fixed and transferred onto PVDF membrane (Bio-Rad). Each sample was then subjected to immunoblotting with rabbit anti-human ABCA1 antibody (self-made purification by an ordinary method) to quantitate expressed ABCA1 proteins. The obtained bands were read for density and size with Scion Image (image analysis software, Scion) to digitize the results.
In the same manner as in Assay Example 1, THP-1 cells were cultured in a medium to which leupeptin was added in place of ALLN, and compared with control cells non-treated with leupeptin.

THP-1 cells = test: Acceleration of apoAI-dependent HDL formation (cholesterols and phospholipids transported into the medium); type: cell-based, human; conditions: apoAI & ALLN-added cells vs control group and apoAI-added group; FIG. 3
Text: In the same manner as in Arakawa et al., J. Lipid Res., 41, 1952-1962 (2000), THP-1 cells were used for quantitative analysis of cholesterols and phospholipids transported into the medium on the basis of apoAI-dependent HDL formation. ALLN-added cells were compared with those free of ALLN addition.

Structure (SMILES)	intracellular expression of ABCA1 compared with control cells (ABCA1; ALLN 50 μM in medium)	action of increasing the expression of ABCA1 (ABCA1; ALLN 50 μM, 24 hours after addition)	amount of apoAI-dependently transported cholesterols (THP-1 cells)	amount of apoAI-dependently transported phospholipids (THP-1 cells)	intracellular expression of ABCA1 compared with control cells (ABCA1; leupeptin in place of ALLN, FIG. 2 at 7 hours after addition)	action of elevating the expression of ABCA1 (ABCA1; leupeptin, 24 hours after addition to the medium)
CCCC[C@@H](C=O)NC(=O)[C@H](CC(C)C)NC(=O)[C@H](CC(C)C)NC(C)=O [ALLN, N-acetyl-leu-leu-norleucinal] (Ac-Leu-Leu-[Nle]-aldehyde)	remarkable intracellular expression of ABCA1	found even 24 hours after addition	increase	increase	–	–
CC(=O)N[C@@H](CC(C)C)C(=O)N[C@@H](CC(C)C)C(=O)N[C@H](C=O)CCCNC(=N)N [leupeptin]	–	–	–	–	remarkable increase in the intracellular expression of ABCA1	found even 24 hours after addition
